Reference: patent US9822137B2, “Phosphonucleosides useful in the treatment of viral disorders” (UNIVERSITY COLLEGE CORK, priority 2012, dated 2017)
In brackets after ≈: the same amount, converted by molar mass. Counter-ions that a name gives are not always drawn. Like-named read-outs stand apart in the source and are kept apart here.

Columns and labels:
[1] = target: HIV-1 reverse transcriptase (Human immunodeficiency virus type 1 group M subtype B, UniProt P04585); test: cell-free HIV-1 RT assay with artificial homopolymeric template/primer and [3H]dNTP; format: biochemical; settings: for inhibition of incorporation of [3H]dATP in poly rU/oligo dA / inhibition of incorporation of [3H]dCTP in poly rI/oligo dC: 11a and 11b at 200 μg/mL
Procedure: To prepare the template/primers for the RT experiments, 0.15 mM poly(U), poly(A), and poly(I) were mixed with an equal volume of 0.0375 mM oligo(dA), oligo(dT), and oligo(dC), respectively. The final concentrations of the templates in the RT reaction mixture were 0.015 mM. The reaction mixture (50 μl) contained 50 mM Tris.HCl (pH 7.8), 5 mM dithiothreitol, 300 mM glutathione, 500 μM EDTA, 150 mM KCl, 5 mM MgCl2, 1.25 μg of bovine serum albumin, an appropriate concentration of labeled (tritiated) substrate dTTP, dCTP, or dATP (2 μCi/assay), a fixed concentration of the template/primer poly(A).oligo(dT) (0.015 mM), poly(I).oligo(dC) (0.015 mM), and poly(U).oligo(dA) (0.015 mM), 0.06% Triton X-100, 10 μl of inhibitor solution (containing various concentrations of the compounds), and 1 μl of the RT preparation. The reaction mixtures were incubated at 37° C. for 30 min, at which time 100 μl of yeast RNA (1 mg/ml) and 1 ml of Na4P2O7 (0.02 M) in trichloroacetic acid (5% v/v) were added. The solutions were kept on ice for 30 min, after which the acid-insoluble material was washed and analyzed for radioactivity.

[2] = chemical stability on storage / in solution; format: physicochemical
HIV-RT = HIV-RT (Human immunodeficiency virus type 1 group M subtype B, UniProt P04585); settings: cell-free HIV-RT assay, literature, not a direct comparison; cited from earlier work
[3] = substrate [3H]dATP, template/primer poly rU.oligo dA, read-out: IC50, HIV-RT catalysed incorporation of [3H]dATP / polyrU.dA (converted)
[4] = substrate [3H]dCTP, template/primer poly rI.oligo dC, read-out: IC50, HIV-RT catalysed incorporation of [3H]dCTP / polyrI.dC (converted)
[5] = substrate [3H]dTTP, template/primer poly rA.oligo dT, read-out: IC50, HIV-RT catalysed incorporation of [3H]dTTP / polyrA.dT (converted)
[6] = IC50, HIV-RT catalysed incorporation of [3H]dATP / polyrU.dA, substrate [3H]dATP, template/primer poly rU.oligo dA
[7] = IC50, HIV-RT catalysed incorporation of [3H]dCTP / polyrI.dC, substrate [3H]dCTP, template/primer poly rI.oligo dC
[8] = IC50, HIV-RT catalysed incorporation of [3H]dTTP / polyrA.dT, substrate [3H]dTTP, template/primer poly rA.oligo dT

Structure (SMILES) | melting point [°C] | IC50 [1, 3] [µM] | IC50 [1, 4] [µM] | IC50 [1, 5] [µM] | other results
O=C(O)C(OC1CCC(n2cc(F)c(=O)[nH]c2=O)C1)P(=O)(O)O (stereo not drawn) (as salt: ammonium) [Compound 41, 2-((3-(5-fluoro-2,4-dioxo-3,4-dihydropyrimidin-1(2H)-yl)cyclopentyl)oxy)-2-phosphonoacetic acid] | 243 | – | – | – | –
Cc1cn([C@@H]2CC[C@H](OC(C(=O)O)P(=O)(O)O)C2)c(=O)[nH]c1=O (relative stereo) (as salt: ammonium) [Compound 11a, cis-1-{4-[Carboxy(phosphono)methoxy]cyclopentan-1-yl}thymine] | 228 to 230 | – | – | – | –
Nc1ncnc2c1ncn2[C@@H]1CC[C@H](OC(C(=O)O)P(=O)(O)O)C1 (relative stereo) (as salt: ammonium) [Compound 11d, cis-9-{4-[Carboxy(phosphono)methoxy]cyclopentan-1-yl}adenine] | 236 to 240 | – | – | – | –
COC(=O)C(O[C@H]1CC[C@@H](n2cc(C)c(=O)[nH]c2=O)C1)P(=O)(OC)OC (relative stereo) [26a] | 130 to 133 | – | – | – | –
Cc1cn([C@@H]2CC[C@H](OC(C(=O)O)P(=O)(O)O)C2)c(=O)[nH]c1=O (relative stereo) [Compound 11a, cis-1-{4-[Carboxy(phosphono)methoxy]cyclopentan-1-yl}thymine] | – | 307 | > 574 | 0.431 | inhibition of incorporation of [3H]dATP in poly rU/oligo dA [1]: no marked, if any inhibition; inhibition of incorporation of [3H]dCTP in poly rI/oligo dC [1]: no marked, if any inhibition
O=C(O)C(O[C@H]1CC[C@@H](n2ccc(=O)[nH]c2=O)C1)P(=O)(O)O (relative stereo) [Compound 11b, cis-1-{4-[Carboxy(phosphono)methoxy]cyclopentan-1-yl}uracil] | – | 221 | > 598 | 3.89 | inhibition of incorporation of [3H]dATP in poly rU/oligo dA [1]: no marked, if any inhibition; inhibition of incorporation of [3H]dCTP in poly rI/oligo dC [1]: no marked, if any inhibition
Nc1ccn([C@@H]2CC[C@H](OC(C(=O)O)P(=O)(O)O)C2)c(=O)n1 (relative stereo) [Compound 11c, cis-1-{4-[Carboxy(phosphono)methoxy]cyclopentan-1-yl}cytosine] | > 250 | 108 | 4.8 | 231 | –
Nc1ncnc2c1ncn2[C@@H]1CC[C@H](OC(C(=O)O)P(=O)(O)O)C1 (relative stereo) [Compound 11d, cis-9-{4-[Carboxy(phosphono)methoxy]cyclopentan-1-yl}adenine] | – | – | – | – | degradation of stored sample ([2]; sample checked after 1 year): ~10%; IC50 [1, 6]: 0.274 µM; IC50 [1, 7]: > 560 µM; IC50 [1, 8]: ≥ 560 µM; inhibition of incorporation of [3H]dATP in poly rU/oligo dA [1]: potent inhibitor
COC(=O)C(O[C@H]1C=C[C@@H](n2ccc(N)nc2=O)C1)P(=O)(OC)OC (relative stereo) [Compound 24c, cis-1-{4-[(Methoxycarbonyl)dimethylphosphonomethoxy]cyclopent-2-en-1-yl}cytosine] | – | – | – | – | stability in deuterated chloroform ([2]; 36 hours at room temperature): Significant decomposition
COC(=O)C(O[C@H]1CC[C@@H](n2ccc(=O)[nH]c2=O)C1)P(=O)(OC)OC (relative stereo) [Compound 26b, cis-1-{4-[(methoxycarbonyl)dimethylphosphonomethoxy]cyclopentan-1-yl}uracil] | – | – | – | – | stability on storage at room temperature ([2]; room temperature, extended periods, neat, solid or in solution): no noticeable decomposition; purity by 1H NMR of aged sample ([2]; sample approximately 2 years old, stored at room temperature): 95%
COC(=O)C(O[C@H]1CC[C@@H](n2ccc(N)nc2=O)C1)P(=O)(OC)OC (relative stereo) [Compound 26c, cis-1-{4-[(Methoxycarbonyl)dimethylphosphonomethoxy]cyclopentan-1-yl}cytosine] | – | – | – | – | stability in deuterated chloroform ([2]; 16 hours at room temperature): Significant decomposition
COC(=O)C(O[C@H]1CC[C@@H](n2cnc3nc(N)nc(Cl)c32)C1)P(=O)(OC)OC (relative stereo) [Compound N-7-26e, cis-2-Amino-7-{4-[(methoxycarbonyl)dimethylphosphonornethoxy]cyclopentan-1-yl}-6-chloropurine] | – | – | – | – | stability in solution ([2]; within 4 days in solution): significant decomposition
Cc1cn([C@H]2CC[C@@H](OC(C(=O)O)P(=O)(O)O)C2)c(=O)[nH]c1=O (single isomer, unassigned; (+)) (as salt: ammonium) [(+)-11a] | 225 to 227 | – | – | – | –
Nc1ncnc2c1ncn2[C@H]1CC[C@@H](OC(C(=O)O)P(=O)(O)O)C1 (single isomer, unassigned; (+)) (as salt: ammonium) [(+)-11d] | 234 to 239 | – | – | – | –
COC(=O)C(O[C@H]1CC[C@@H](n2cc(C)c(=O)[nH]c2=O)C1)P(=O)(OC)OC (single isomer, unassigned; (+)) [(+)26a] | 129 to 130 | – | – | – | –
Cc1cn([C@H]2CC[C@@H](OC(C(=O)O)P(=O)(O)O)C2)c(=O)[nH]c1=O (single isomer, unassigned; (+)) [(+)-11a] | – | 101 | > 574 | 37.3 | –
O=C(O)C(O[C@@H]1CC[C@H](n2ccc(=O)[nH]c2=O)C1)P(=O)(O)O (single isomer, unassigned; (+)) [(+)-11b] | – | 168 | > 598 | 120 | –
Nc1ccn([C@H]2CC[C@@H](OC(C(=O)O)P(=O)(O)O)C2)c(=O)n1 (single isomer, unassigned; (+)) [(+)-11c] | > 250 | 54 | 402 | 23.4 | –
Nc1ncnc2c1ncn2[C@H]1CC[C@@H](OC(C(=O)O)P(=O)(O)O)C1 (single isomer, unassigned; (+)) [(+)-11d] | – | 33.6 | > 560 | 487 | –
Cc1cn([C@@H]2CC[C@H](OC(C(=O)O)P(=O)(O)O)C2)c(=O)[nH]c1=O (single isomer, unassigned; (-)) (as salt: ammonium) [(−)-11a] | 229 to 230 | – | – | – | –
Nc1ncnc2c1ncn2[C@@H]1CC[C@H](OC(C(=O)O)P(=O)(O)O)C1 (single isomer, unassigned; (-)) (as salt: ammonium) [(−)-11d] | 237 to 241 | – | – | – | –
COC(=O)C(O[C@@H]1CC[C@H](n2cc(C)c(=O)[nH]c2=O)C1)P(=O)(OC)OC (single isomer, unassigned; (-)) [(−)26a] | 133 to 135 | – | – | – | –
Cc1cn([C@@H]2CC[C@H](OC(C(=O)O)P(=O)(O)O)C2)c(=O)[nH]c1=O (single isomer, unassigned; (-)) [(−)-11a] | – | – | – | – | IC50 [1, 6]: 167 µM; IC50 [1, 7]: > 574 µM; IC50 [1, 8]: 0.431 µM; inhibition of HIV-1-RT-catalysed incorporation of [3H]dTTP in poly rA/oligo dT [1]: potent inhibitory activity
O=C(O)C(O[C@H]1CC[C@@H](n2ccc(=O)[nH]c2=O)C1)P(=O)(O)O (single isomer, unassigned; (-)) [(−)-11b] | – | 233 | > 598 | 3.29 | inhibition of HIV-1-RT-catalysed incorporation of [3H]dTTP in poly rA/oligo dT [1]: potent inhibitory activity
Nc1ccn([C@@H]2CC[C@H](OC(C(=O)O)P(=O)(O)O)C2)c(=O)n1 (single isomer, unassigned; (-)) [(−)-11c] | – | 51 | 4.5 | 180 | inhibition of incorporation of [3H]dCTP in poly rI/oligo dC [1]: strong inhibition
Nc1ncnc2c1ncn2[C@@H]1CC[C@H](OC(C(=O)O)P(=O)(O)O)C1 (single isomer, unassigned; (-)) [(−)-11d] | – | 0.202 | > 560 | > 560 | –
Cc1cn([C@H]2C[C@H](N=[N+]=[N-])[C@@H](COP(=O)(O)OP(=O)(O)OP(=O)(O)O)O2)c(=O)[nH]c1=O [AZT-TP, reference compound] | – | – | – | – | IC50, HIV-RT catalysed incorporation of [3H]dTTP / polyrA.dT ([1]; substrate [3H]dTTP, template/primer poly rA.oligo dT): 0.035 ± 0.016 µg/mL
Cc1cn([C@H]2C[C@H](N=[N+]=[N-])[C@@H](CO)O2)c(=O)[nH]c1=O [AZT] | – | – | – | – | IC50 anti-HIV-RT activity reported by McClure (HIV-RT): 0.1 µg/mL (≈ 0.374 µM)
Nc1ncnc2c1ncn2[C@H]1CC[C@@H](COP(=O)(O)OP(=O)(O)OP(=O)(O)O)O1 [ddATP, reference compound] | – | – | – | – | IC50, HIV-RT catalysed incorporation of [3H]dATP / polyrU.dA ([1]; substrate [3H]dATP, template/primer poly rU.oligo dA): 0.55 ± 0.09 µg/mL
Nc1ccn([C@H]2CC[C@@H](COP(=O)(O)OP(=O)(O)OP(=O)(O)O)O2)c(=O)n1 [ddCTP, reference compound] | – | – | – | – | IC50, HIV-RT catalysed incorporation of [3H]dCTP / polyrI.dC ([1]; substrate [3H]dCTP, template/primer poly rI.oligo dC): 5.0 ± 0.4 µg/mL
